Source: patent US20140370131A1, “Pharmaceutical Composition for Protecting Brain Neurons Comprising Plumula Nelumbinis Extract as Active Ingredient” (priority 2012, published 2014)

Assays:
[1] = Hydrogen peroxide (H2O2) scavenging activity, ABTS-peroxidase system; conditions: pH 5.0, absorbance at 405 nm
Experimental: Hydrogen peroxide (H2O2) scavenging activity was measured in a 2,2-azinobis(3-ethylbenzthiazolin)-6-sulfonicacid (ABTS)-peroxidase system according to the Muller method. Each sample was diluted at varying concentrations. 80 μL of each sample solution, 20 μL of 10 mM H2O2 and 100 μL of phosphate buffer (pH 5.0, 0.1 M) were added to a 96-well plate and reacted at 37° C. for 5 minutes. Then, 30 μL of 1.25 mM ABTS and 30 μL of 1 U/mL peroxidase were added thereto and reacted at 37° C. for 10 minutes, and the absorbance at 405 nm was measured using an enzyme-linked immunosorbent assay (ELISA) reader.

ICR mice = experiment: Morris water maze test, scopolamine-induced memory damage; type: in vivo, mouse; conditions: memory acquisition test for 4 days; scopolamine 1 mg/kg i.p.; test samples oral (extract 3, 10, 30, 100, 200 mg/kg)
Experimental: To observe the cell-protecting effect and cognitive function-improving effect of the Plumula nelumbinis extract in vivo using a Morris water maze test, International Cancer Research (ICR) mice having an average weight of about 30 g were purchased and acclimated to the environment of the laboratory for 1 week before use in the experiment. The animal breeding room was maintained at room temperature (ca. 22±2° C.) with 12 h light (200-300 lux)/12 h dark cycles. The animals had free access to food (i.e., 22.1% or more crude protein, 8.0% or less crude fat, 0.6% or more calcium, and 0.4% or more phosphorus; Samyang Corp., Korea) and water. The animals were divided into a control group administered with the same amount of injectable saline without scopolamine (Sigma Aldrich), and a group administered with scopolamine. The group administered with scopolamine was treated with 3, 10, 30, 100 and 200 mg/kg of a 80% methanol extract of Plumula nelumbinis. As a positive control, donepezil was used, which is a cholinesterase inhibitor-based drug approved by the FDA, and is used for the treatment of mild, moderate, or severe Alzheimer's disease and for the alleviation of vascular dementia (i.e., dementia involving cerebrovascular disease).
Each of the test samples and the positive control drug was suspended in injectable sterile water and administered at a unit dose of 10 ml/kg. Scopolamine (1 mg/kg) was administered intraperitoneally each day for 4 days, and the test sample and the positive control drug were administered orally (FIGS. 8A and 8B).
In the water maze test, a learning trial was performed on the day before administration of the extract, and then a memory acquisition test was repeated for 4 days. In the learning trial, each test animal was placed into a water pool ([…]) at one of four release points and allowed to find a platform ([…]) by swimming for 60 seconds. […]
During the memory acquisition test, 1 mg/kg of scopolamine was administered intraperitoneally once a day for 4 days at 60 minutes after administration of the Plumula nelumbinis extract. […] The cognitive ability-improving effect was evaluated by measuring the average swimming time (sec) taken for the test animal to find the platform (sec).
After the learning trial for 1 day, scopolamine was administered to cause damage to cognitive function (memory), and the Moths water maze test was performed to examine the cognitive function-improving effect of the extract. In the memory acquisition test performed over 4 days, the cognitive function-improving effect of the extract was evaluated based on a decrease in each of the average swimming times taken to find the platform and the swimming distance. […]

[2] = DPPH radical scavenging activity; conditions: 30 minutes in the dark, absorbance at 517 nm
Experimental: The test sample was weighed, dissolved in methanol or ethanol, and then filtered through a 0.45-μm filter. The prepared sample was serially diluted. Varying concentrations of 150 μl of each diluted sample were added to a 96-well micro plate, followed by addition of DPPH. The 96-well micro plate was placed in a dark room and allowed to stand for 30 minutes. The absorbance at 517 nm was measured.

In the case of `COc1ccc(O)c(C(C)(C)C)c1` [butylated hydroxy anisole (BHA), butylated hydroxy anisole], the “hydrogen peroxide (H2O2) scavenging IC50” value [1] is reported as 160.58 µg/mL.
With `COc1cc2c(cc1OC)C(=O)C(CC1CCN(Cc3ccccc3)CC1)C2` (stereo not drawn) [donepezil] the average swimming distance (ICR mice) was “gradual decreases” and the “average swimming time taken to find the platform” value (ICR mice) was “gradual decreases”.
In the case of `CN1[C@@H]2C[C@@H](OC(=O)[C@H](CO)c3ccccc3)C[C@H]1[C@@H]1O[C@@H]12` [scopolamine], the average swimming distance (ICR mice) is reported as “increased rather than decreased” and the “average swimming time taken to find the platform” value (ICR mice) is reported as “increased rather than decreased”.
For `O=C1O[C@H]([C@@H](O)CO)C(O)=C1O` [vitamin C, ascorbic acid], the “DPPH radical scavenging IC50” value [2] was 27.73 µg/mL.
